Measured values reported in ChEMBL document CHEMBL1137914, “Optimizing the antibacterial activity of a lead structure discovered by "SAR by MS" technology” (Bioorg Med Chem Lett, 2004).

Each compound was assayed on Escherichia coli (assay: Antibacterial activity against Escherichia coli was determined at 100 uM).
Format: functional

Row | Compound | inhibition at 100 µM
1 | CN(C)CCCOc1ccc(C(NC(=O)c2ccc(-c3cccc(NC(=O)c4cnc5ccccc5c4)c3)o2)C(=O)N2CCNCC2)cc1 (stereo not drawn) | < 75%
2 | CN(C)CCCOc1ccc(C(NC(=O)c2ccc(-c3cccc(NC(=O)c4ccc5nc(O)c(O)nc5c4)c3)o2)C(=O)N2CCNCC2)cc1 (stereo not drawn) | < 75%
3 | CN(C)CCCOc1ccc(C(NC(=O)c2ccc(-c3cccc(NC(=O)c4ccccn4)c3)o2)C(=O)N2CCNCC2)cc1 (stereo not drawn) | < 75%
4 | CN(C)CCCOc1ccc(C(NC(=O)c2ccc(-c3cccc(NC(=O)c4ccc(Cl)c(Cl)c4)c3)o2)C(=O)N2CCNCC2)cc1 (stereo not drawn) | < 75%
5 | NCC[C@@H](NC(=O)c1ccc(-c2cccc(NC(=O)c3ccccn3)c2)o1)C(=O)N1CCNCC1 | < 75%
6 | CC(=O)Nc1cccc(-c2ccc(C(=O)NC(C(=O)N3CCNCC3)c3ccc(OCCCN(C)C)cc3)o2)c1 (stereo not drawn) | < 75%
7 | NCC[C@@H](NC(=O)c1ccc(-c2cccc(NS(=O)(=O)c3ccc4nc(O)c(O)nc4c3)c2)o1)C(=O)N1CCNCC1 | < 75%
8 | CN(C)CCCOc1ccc(C(NC(=O)c2ccc(-c3cccc(NC(=O)c4ccc5nc(O)c(O)nc5c4)c3)o2)C(N)=O)cc1 (stereo not drawn) | < 75%
9 | Cc1nc2ccc(C(=O)Nc3cccc(-c4ccc(C(=O)NC(C(=O)N5CCNCC5)c5ccc(OCCCN(C)C)cc5)o4)c3)cc2nc1C (stereo not drawn) | < 75%
10 | CN(C)CCCOc1ccc(C(NC(=O)c2ccc3nc(O)c(O)nc3c2)C(=O)N2CCNCC2)cc1 (stereo not drawn) | < 75%
11 | Cc1cc(Cl)c2cc(C(=O)Nc3cccc(-c4ccc(C(=O)NC(C(=O)N5CCNCC5)c5ccc(OCCCN(C)C)cc5)o4)c3)ccc2n1 (stereo not drawn) | < 75%
12 | Cc1nc2ccc(C(=O)Nc3cccc(-c4ccc(C(=O)N[C@H](CCN)C(=O)N5CCNCC5)o4)c3)cc2nc1C | < 75%
13 | NCC[C@@H](NC(=O)c1ccc(-c2cccc(NC(=O)c3ccc4nc(O)c(O)nc4c3)c2)o1)C(=O)N1CCNCC1 | < 75%
14 | NCC[C@@H](NC(=O)c1ccc(-c2cccc(NC(=O)c3nncs3)c2)o1)C(=O)N1CCNCC1 | < 75%

Each compound was assayed on Escherichia coli (assay: Minimal inhibitory concentration required against Escherichia coli ATCC 25922 was determined; values ranges from 25-50).
Format: functional

Row | Compound | MIC
15 | CN(C)CCCOc1ccc(C(NC(=O)c2ccc(-c3cccc(NC(=O)c4ccc5ccccc5c4)c3)o2)C(=O)N2CCNCC2)cc1 (stereo not drawn) | < 50 µM

What follows are compounds tested on Escherichia coli (assay: (§1) In vitro dissociation constant of compound required for inhibition of Escherichia coli translation was determined).
Format: functional, organism-based

Row | Compound | IC50
16 | CN(C)CCCOc1ccc(C(NC(=O)c2ccc(-c3cccc(NC(=O)c4ccc5ccccc5c4)c3)o2)C(=O)N2CCNCC2)cc1 (stereo not drawn) | 10 µM
17 | CN(C)CCCOc1ccc(C(NC(=O)c2ccc(-c3cccc(NC(=O)c4cnc5ccccc5c4)c3)o2)C(=O)N2CCNCC2)cc1 (stereo not drawn) | 5 µM
18 | CN(C)CCCOc1ccc(C(NC(=O)c2ccc(-c3cccc(NC(=O)c4ccc5nc(O)c(O)nc5c4)c3)o2)C(=O)N2CCNCC2)cc1 (stereo not drawn) | 3 µM
19 | CN(C)CCCOc1ccc(C(NC(=O)c2ccc(-c3cccc(NC(=O)c4ccccn4)c3)o2)C(=O)N2CCNCC2)cc1 (stereo not drawn) | 20 µM
20 | CN(C)CCCOc1ccc(C(NC(=O)c2ccc(-c3cccc(NC(=O)c4ccc(Cl)c(Cl)c4)c3)o2)C(=O)N2CCNCC2)cc1 (stereo not drawn) | 4 µM
21 | NCC[C@@H](NC(=O)c1ccc(-c2cccc(NC(=O)c3ccccn3)c2)o1)C(=O)N1CCNCC1 | > 100 µM
22 | CC(=O)Nc1cccc(-c2ccc(C(=O)NC(C(=O)N3CCNCC3)c3ccc(OCCCN(C)C)cc3)o2)c1 (stereo not drawn) | > 100 µM
23 | NCC[C@@H](NC(=O)c1ccc(-c2cccc(NS(=O)(=O)c3ccc4nc(O)c(O)nc4c3)c2)o1)C(=O)N1CCNCC1 | > 100 µM
24 | CN(C)CCCOc1ccc(C(NC(=O)c2ccc(-c3cccc(NC(=O)c4ccc5nc(O)c(O)nc5c4)c3)o2)C(N)=O)cc1 (stereo not drawn) | 10 µM
25 | Cc1nc2ccc(C(=O)Nc3cccc(-c4ccc(C(=O)NC(C(=O)N5CCNCC5)c5ccc(OCCCN(C)C)cc5)o4)c3)cc2nc1C (stereo not drawn) | 1 µM
26 | CN(C)CCCOc1ccc(C(NC(=O)c2ccc3nc(O)c(O)nc3c2)C(=O)N2CCNCC2)cc1 (stereo not drawn) | > 200 µM
27 | Cc1cc(Cl)c2cc(C(=O)Nc3cccc(-c4ccc(C(=O)NC(C(=O)N5CCNCC5)c5ccc(OCCCN(C)C)cc5)o4)c3)ccc2n1 (stereo not drawn) | 2 µM
28 | Cc1nc2ccc(C(=O)Nc3cccc(-c4ccc(C(=O)N[C@H](CCN)C(=O)N5CCNCC5)o4)c3)cc2nc1C | 15 µM
29 | NCC[C@@H](NC(=O)c1ccc(-c2cccc(NC(=O)c3ccc4nc(O)c(O)nc4c3)c2)o1)C(=O)N1CCNCC1 | 14 µM
30 | NCC[C@@H](NC(=O)c1ccc(-c2cccc(NC(=O)c3nncs3)c2)o1)C(=O)N1CCNCC1 | > 100 µM

Each compound was assayed on Staphylococcus aureus (assay: Minimal inhibitory concentration required against Staphylococcus aureus ATCC 13709 was determined; values ranges from 50-100).
Format: functional

Row | Compound | MIC
31 | CN(C)CCCOc1ccc(C(NC(=O)c2ccc(-c3cccc(NC(=O)c4ccc5ccccc5c4)c3)o2)C(=O)N2CCNCC2)cc1 (stereo not drawn) | < 100 µM

The compounds below were run on Escherichia coli (assay: as §1).
Format: functional

Row | Compound | Kd
32 | NCC[C@@H](NC(=O)c1ccc(-c2ccccc2)o1)C(=O)N1CCNCC1 | 50 µM
33 | C=CCNC(=O)c1ccc2nc(O)c(O)nc2c1 | 150 µM

What follows are compounds tested on Escherichia coli (assay: In vitro dissociation constant of compound required for inhibition of Escherichia coli translation by 50% was determined).
Format: functional

Row | Compound | Kd
34 | NCC[C@@H](NC(=O)c1ccc(-c2cccc(NC(=O)c3ccc4nc(O)c(O)nc4c3)c2)o1)C(=O)N1CCNCC1 | 6.5 µM

The compounds below were run on Staphylococcus aureus (assay: Antibacterial activity against Staphylococcus aureus was determined at 100 uM).
Format: functional

Row | Compound | inhibition at 100 µM
35 | CN(C)CCCOc1ccc(C(NC(=O)c2ccc(-c3cccc(NC(=O)c4cnc5ccccc5c4)c3)o2)C(=O)N2CCNCC2)cc1 (stereo not drawn) | < 75%
36 | CN(C)CCCOc1ccc(C(NC(=O)c2ccc(-c3cccc(NC(=O)c4ccc5nc(O)c(O)nc5c4)c3)o2)C(=O)N2CCNCC2)cc1 (stereo not drawn) | < 75%
37 | CN(C)CCCOc1ccc(C(NC(=O)c2ccc(-c3cccc(NC(=O)c4ccccn4)c3)o2)C(=O)N2CCNCC2)cc1 (stereo not drawn) | < 75%
38 | CN(C)CCCOc1ccc(C(NC(=O)c2ccc(-c3cccc(NC(=O)c4ccc(Cl)c(Cl)c4)c3)o2)C(=O)N2CCNCC2)cc1 (stereo not drawn) | < 75%
39 | NCC[C@@H](NC(=O)c1ccc(-c2cccc(NC(=O)c3ccccn3)c2)o1)C(=O)N1CCNCC1 | < 75%
40 | CC(=O)Nc1cccc(-c2ccc(C(=O)NC(C(=O)N3CCNCC3)c3ccc(OCCCN(C)C)cc3)o2)c1 (stereo not drawn) | < 75%
41 | NCC[C@@H](NC(=O)c1ccc(-c2cccc(NS(=O)(=O)c3ccc4nc(O)c(O)nc4c3)c2)o1)C(=O)N1CCNCC1 | < 75%
42 | CN(C)CCCOc1ccc(C(NC(=O)c2ccc(-c3cccc(NC(=O)c4ccc5nc(O)c(O)nc5c4)c3)o2)C(N)=O)cc1 (stereo not drawn) | < 75%
43 | Cc1nc2ccc(C(=O)Nc3cccc(-c4ccc(C(=O)NC(C(=O)N5CCNCC5)c5ccc(OCCCN(C)C)cc5)o4)c3)cc2nc1C (stereo not drawn) | < 75%
44 | CN(C)CCCOc1ccc(C(NC(=O)c2ccc3nc(O)c(O)nc3c2)C(=O)N2CCNCC2)cc1 (stereo not drawn) | < 75%
45 | Cc1cc(Cl)c2cc(C(=O)Nc3cccc(-c4ccc(C(=O)NC(C(=O)N5CCNCC5)c5ccc(OCCCN(C)C)cc5)o4)c3)ccc2n1 (stereo not drawn) | < 75%
46 | Cc1nc2ccc(C(=O)Nc3cccc(-c4ccc(C(=O)N[C@H](CCN)C(=O)N5CCNCC5)o4)c3)cc2nc1C | < 75%
47 | NCC[C@@H](NC(=O)c1ccc(-c2cccc(NC(=O)c3ccc4nc(O)c(O)nc4c3)c2)o1)C(=O)N1CCNCC1 | < 75%
48 | NCC[C@@H](NC(=O)c1ccc(-c2cccc(NC(=O)c3nncs3)c2)o1)C(=O)N1CCNCC1 | < 75%
